These results are taken from patent US20170165363A1, “CANCER CELL MIGRATION INHIBITORS AND THEIR USE IN THERAPEUTIC TREATMENTS” (THE JOHNS HOPKINS UNIVERSITY, priority 2015, published 2017).

The subject of the assay is human fibrosarcoma HT1080 cells. The experiment in a line: Velocity of matrix-embedded cells in 3D collagen I matrix (live-cell tracking). It counts as cell-based. The settings on record: for cell velocity: human fibrosarcoma cells embedded in a 3D matrix at LD (ρ=10) and HD (ρ=50), compared to cells exposed to fresh medium (0); for cell-density-dependent migration: matrix-embedded cells at low and high cell densities; for cell velocity / cell migration on addition of recombinant cytokine: HT1080 seeded at low density (10 cells/mm^3), combination at the precise concentrations found at 50 cells/mm^3, ratio 5:2. On the procedure:
HT1080 cells were embedded in 2mg/ml type I collagen gel as described previously by Fraley et al^20. Briefly, cell suspensions containing 5000 to 75,000 cells in 1:1 (v/v) ratio of cell culture media and reconstitution buffer were mixed with appropriate volume of soluble rat-tail collagen I (Corning Inc.) to obtain a final collagen I concentration of 2 mg/ml. A calculated amount of 1M NaOH was added quickly and the final solution was mixed well to bring the pH to ˜7. The cell suspensions was added to a 24-well coverslip-bottom cell-culture dish and immediately transferred to an incubator maintained at 36° C. to allow polymerization. Fresh medium was added 1 h before imaging. MDA MB 231 and U-87 cells were embedded in 1 mg/ml type I collagen matrix
Phase-contrast images of matrix-embedded cells were recorded 2 min apart for 16.5 h using a Cascade 1K CCD camera (Roper Scientific) mounted on a Nikon TE2000 microscope with a 10× objective lens. Single cells were tracked using Metamorph imaging software. A custom MATLAB program calculated the velocity for each cell using the x- and y-coordinates obtained from tracking data using the following equation: […]
Recombinant IL-6 and IL-8 (R&D systems) reconstituted in DPBS (Life technologies) were added to matrix embedded cells with a cell density of 10 cells/mm^3 and imaged as described above (See velocity and protrusion topology of matrix embedded cells). Matrix embedded cells with cell densities of 10 cells/mm^3 and 50 cells/mm^3 were exposed to specific IL-6 and IL-8 functional antibodies (Proteintech) at a concentration of 0.5 μg/mL. Matrix embedded cells with cell densities of 10 cells/mm^3 and 50 cells/mm^3 were exposed to Tocilizumab (Roche) and Reparixin (Dompe pharmaceuticals) STAT3 and WASF3 activity
Matrix embedded with cell densities of 10 cells/mm^3 and 50 cells/mm^3 were exposed to JAK2 inhibitor, AG-490 (Santa Cruz Biotechnology), STAT3 inhibitor, S31-201, (Santa Cruz Biotechnology) and ARP 2/3 complex inhibitor, CK 666, (Sigma-Aldrich) for 1 h before cells were imaged as described above. (See velocity and protrusion topology of matrix embedded cells)

For `N#C/C(=C/c1ccc(O)c(O)c1)C(=O)NCc1ccccc1` [AG-490], the cell velocity entry is recorded as “Decreased cell velocity” and the cell-density-dependent migration entry is “prevented cell-density-dependent migration”.

Regarding `Cc1[nH]c2ccccc2c1CCNC(=O)c1ccccc1F` [CK666], the cell velocity result was “Decreased cell velocity” and the cell-density-dependent migration result was “prevented cell-density-dependent migration”.

With `CC(C)Cc1ccc([C@@H](C)C(=O)NS(C)(=O)=O)cc1` [Reparixin, (2R)-2-[4-(2-methylpropyl)phenyl]-N-methylsulfonylpropanamide], the cell velocity result is reported as “decreased cell velocity”.

As to `Cc1ccc(S(=O)(=O)OCC(=O)Nc2ccc(C(=O)O)c(O)c2)cc1` [S3I-201], the cell velocity entry is on record as “Decreased cell velocity” and the cell-density-dependent migration entry was “prevented cell-density-dependent migration”.

Consider “Tocilizumab: a recombinant humanized, anti-human IL-6 receptor monoclonal antibody currently used in the treatment of Rheumatoid Arthritis”, for which the cell velocity result was “decreased cell velocity”.

For “recombinant IL-6: human recombinant IL-6 (R&D systems)”, the “cell velocity / cell migration on addition of recombinant cytokine” value (shortened to “cell velocity / cell migration”) is “do not increase cell velocity”. Further, the “cell velocity / cell migration” value (listed as IL-6) is given as “no effect on cell migration”.

For “recombinant IL-8: human recombinant IL-8 (R&D systems)”, the “cell velocity / cell migration” value is “do not increase cell velocity”. Besides, the “cell velocity / cell migration” value (listed as IL-8) is listed as “no effect on cell migration”.
